Reference: publication PMC6807911, “A structure-based approach towards the identification of novel antichagasic compounds: Trypanosoma cruzi carbonic anhydrase inhibitors” (Journal of Enzyme Inhibition and Medicinal Chemistry, 2019)

Molecular target: T1, TcCA (Trypanosoma cruzi carbonic anhydrase) (Trypanosoma cruzi, UniProt Q4CVY4)
T1 construct: gene Tc00.1047053509597.20
T1 sequence (Q4CVY4 39-638): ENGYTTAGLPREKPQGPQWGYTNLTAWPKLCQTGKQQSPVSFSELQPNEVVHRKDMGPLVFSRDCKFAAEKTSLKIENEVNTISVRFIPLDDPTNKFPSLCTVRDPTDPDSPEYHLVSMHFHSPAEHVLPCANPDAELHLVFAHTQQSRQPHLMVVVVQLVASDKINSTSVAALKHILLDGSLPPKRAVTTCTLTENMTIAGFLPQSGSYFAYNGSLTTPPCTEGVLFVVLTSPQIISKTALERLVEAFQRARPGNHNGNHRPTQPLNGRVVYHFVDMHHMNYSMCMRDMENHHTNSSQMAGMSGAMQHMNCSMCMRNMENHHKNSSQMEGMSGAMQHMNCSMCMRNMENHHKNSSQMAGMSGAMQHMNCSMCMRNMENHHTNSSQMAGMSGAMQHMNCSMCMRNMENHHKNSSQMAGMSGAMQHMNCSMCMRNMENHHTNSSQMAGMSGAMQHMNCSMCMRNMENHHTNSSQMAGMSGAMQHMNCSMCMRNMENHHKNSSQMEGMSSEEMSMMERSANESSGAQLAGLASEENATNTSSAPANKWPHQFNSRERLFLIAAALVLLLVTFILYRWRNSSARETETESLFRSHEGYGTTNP
Assay: stopped-flow CO2 hydration assay
Assay type: biochemical
Details: read-out: KITcCA
Excerpt: stopped-flow CO2 hydration assay on TcCA (Trypanosoma cruzi carbonic anhydrase)

Compound | Ki [µM]
CC1=CC(=O)NS(=O)(=O)O1 [Acesulphame] | 2.24
COC(=O)CCNS(=O)(=O)NCCc1ccccc1 [compound 7, 7] | 7.25
COC(=O)[C@H](Cc1ccccc1)NS(=O)(=O)NCC(C)C [compound 5, 5] | 0.261
O=S(=O)(O)NC1CCCCC1 [Sodium cyclamate] | 0.348
